ChEMBL document CHEMBL1141846, “New verticillin and glisoprenin analogues from gliocladium catenulatum, a mycoparasite of aspergillus flavus sclerotia” (1999)

Key:
Bacillus subtilis [1] = experiment: Antibacterial activity against Bacillus subtilis ATCC 6051 at 100 ug/disk by standard petri-plate assay; format: functional; conditions: read-out: IZ
Staphylococcus aureus [2] = experiment: Antibacterial activity against Staphylococcus aureus ATCC 14053 at 100 ug/disk by standard petri-plate assay; format: functional; conditions: read-out: IZ
Bacillus subtilis [3] = experiment: Antibacterial activity against Bacillus subtilis ATCC 6051 at 50 ug/disk by standard petri-plate assay; format: functional, organism-based
Staphylococcus aureus [4] = experiment: Antibacterial activity against Staphylococcus aureus ATCC 14053 at 50 ug/disk by standard petri-plate assay; format: functional, organism-based

Molecule: CC(=O)[C@@]12SS[C@]3(C(=O)N1C)[C@@H](O)[C@]1([C@@]45c6ccccc6N[C@@H]4N4C(=O)[C@]6(C(C)=O)SS[C@]4(C(=O)N6C)[C@H]5O)c4ccccc4N[C@@H]1N3C2=O [VERTICILLIN E]
- zone of inhibition at 100 µg/disc (Bacillus subtilis [1]): 23 mm
- zone of inhibition at 100 µg/disc (Staphylococcus aureus [2]): 11 mm

Molecule: CC(O)[C@@]12SS[C@]3(C(=O)N1C)[C@@H](O)C1([C@@]45c6ccccc6N[C@@H]4N4C(=O)[C@]6(C(C)O)SS[C@]4(C(=O)N6C)[C@H]5O)c4ccccc4N[C@@H]1N3C2=O (stereo partly drawn) [VERTICILLIN D]
- zone of inhibition at 100 µg/disc (Bacillus subtilis [1]): 23 mm
- zone of inhibition at 100 µg/disc (Staphylococcus aureus [2]): 11 mm

Molecule: CC(=O)[C@@]12SS[C@]3(C(=O)N1C)[C@@H](O)[C@]1([C@@]45c6ccccc6N[C@@H]4N4C(=O)[C@]6(C(C)O)SS[C@]4(C(=O)N6C)[C@H]5O)c4ccccc4N[C@@H]1N3C2=O (stereo partly drawn) [VERTICILLIN F]
- zone of inhibition at 100 µg/disc (Bacillus subtilis [1]): 23 mm
- zone of inhibition at 100 µg/disc (Staphylococcus aureus [2]): 11 mm

Molecule: GENTAMICIN SULFATE
- inhibition zone (IZ) (Bacillus subtilis [3]): 25 mm
- inhibition zone (IZ) (Staphylococcus aureus [4]): 25 mm
